# Test results reported in US20240216412A1, “OXIDIZED NICOTINAMIDE ADENINE DINUCLEOTIDE (NAD+) PRECURSOR TREATMENT FOR HEART FAILURE ALLEVIATION INDEPENDENT OF MITOCHONDRIAL PROTEIN DEACETYLATION” (University of Washington, priority 2022, published 2024).
# Tested on: chronic pressure overload (TAC) induced heart failure in WT and Sirt3Ko mice
# Test: Transthoracic echocardiography after transverse aortic constriction (TAC) or sham surgery
# Assay type: in vivo, mouse
# Settings: for EF / FS / IVS; s / LV Mass / LV Mass (corr.) / LV Vol; d / LV Vol; s / LVID; d / LVID; s / LVPW; d / LVPW; s: NR; for IVS; d: NR 500 mg/kg body weight daily for eight weeks
# Excerpt: The present disclosure provides boosting intracellular NAD^+ with nicotinamide riboside chloride (NR) to protect Sirtuin 3 (Sirt3) knockout mice from heart failure. NR is a natural NAD precursor that bypasses nicotinamide phosphoribosyltransferase (NAMPT) to stimulate intracellular NAD^+ synthesis via the Nrk reaction (Bieganowski and Brenner, 2004; Canto et al., 2012; Diguet et al., 2018; Trammell et al., 2016). […] Immunoblotting confirmed the absence of Sirt3 and increased lysine acetylation in mitochondrial extracts from the knockout hearts (FIG. 9A). Pressure overload was induced by transverse aortic constriction (TAC) surgery for 12 weeks. Intracellular NAD^+ level was increased when mice had already developed cardiac hypertrophy and dysfunction, to model a therapeutic approach (FIG. 1A). After 4 weeks of chronic pressure overload, cardiac function was assessed using trans-thoracic M-mode echocardiography.
# Mice randomly received either NR (500 mg/kg body weight) (Canto et al., 2012) or vehicle saline daily for eight-weeks. Representative M-mode images for the echocardiography can be found in FIGS. 1C and 1D. Four weeks of chronic pressure overload caused similar declines in left ventricular fractional shortening (FS %) in mice randomized to NR or vehicle groups for either WT or Sirt3Ko (FIGS. 1E and 1F). […] Similar to NR treated WT, cardiac hypertrophy, left ventricular cavity dilation, and lung edema were less severe in Sirt3Ko TAO mice that received NR treatment (FIGS. 1B-1J). All echocardiography parameters can be found in Table 1 below.
# All procedures involving animal use were approved by the Institutional Animal Care and Use Committee (IACUC) of the University of Washington. Wild-type mice (129S1/SvlmJ Stock No: 002448) and Sirtuin 3 knockout mice (129-Sirt3tm1.1Fwa/J Stock No: 012755) were purchased from Jackson Laboratories. All mice were housed at 22° C. with a 12-hr light, 12-hr dark cycle with free access to water and standard chow. Male mice were used for experiments in this study.
# Transverse aortic constriction. Male mice (3-4 months old) underwent transverse aortic constriction (TAC) or sham surgery. Briefly, mice were anesthetized with an IP injection of 130 mg/kg ketamine and 8.8 mg/kg xylazine in saline. Mice were intubated with 20 G cannula and ventilated 140 breaths per minute by small animal TOPO ventilator (Kent Scientific). The aortic arch was exposed via a left thoracotomy and by carefully separating the thymus. A constriction of the transverse aorta was generated by tying a 6-0 Ethilon ligature against a 27-gauge blunt needle around the aorta between the brachiocephalic and left common carotid arteries. Promptly the needle was removed and the chest and skin were closed by 5-0 polypropylene suture. The animal was removed from ventilation and kept on a heating blanket during recovery from anesthesia. SR buprenorphine (0.05 mg/kg) was administered subcutaneously for analgesia. Sham operated mice underwent all the same procedures as TAC mice excluding the constriction of the aorta. All mice were monitored every 12 h during the first 72 h post-surgery, followed by daily visits over the next 4 weeks.
# Transthoracic Echocardiography. Echocardiography of hearts was performed at indicated time after surgery using the VEVO 2100 high-frequency, high-resolution digital imaging system (VisualSonics) equipped with a MS400 Microscan Transducer on anesthetized mice (0.5%-2% isoflurane in 95% oxygen). Measurements were made when heart rate was >450 bpm. Cardiac function and geometry measurements were measured in parasternal short axis view. M-mode images were used for analysis and calculated by the average of at least three cardiac cycles and carried out in a blind fashion. Hearts were harvested at 12-week post-surgery for subsequent experiments and biochemical assays.
smiles,measurement,setting,value
"NC(=O)c1ccc[n+]([C@@H]2O[C@H](CO)[C@@H](O)[C@H]2O)c1 [NR, Nicotinamide riboside chloride]",Left ventricular cavity dilation,"Sirt3Ko TAC mice, similar to NR treated WT",less severe
same,Advances of heart failure,"Sirt3Ko TAC mice, vs vehicle treatment",protected the Sirt3Ko TAO mice from advances of heart failure
same,EF,"Sirt3Ko, Sham",71.3%
same,FS,"Sirt3Ko, Sham",39.7%
same,IVS; s,"Sirt3Ko, Sham",1.49 mm
same,LV Mass,"Sirt3Ko, Sham",146.9 mg
same,LV Mass (corr.),"Sirt3Ko, Sham",117.5 mg
same,LV Vol; d,"Sirt3Ko, Sham",42.0 µL
same,LV Vol; s,"Sirt3Ko, Sham",12.1 µL
same,LVID; d,"Sirt3Ko, Sham",3.21 mm
same,LVID; s,"Sirt3Ko, Sham",1.94 mm
same,LVPW; d,"Sirt3Ko, Sham",1.30 mm
same,LVPW; s,"Sirt3Ko, Sham",1.69 mm
same,IVS; d,"Sirt3Ko, Sham",1.04 mm
same,EF,"Sirt3Ko, TAC",59.2%
same,FS,"Sirt3Ko, TAC",30.9%
same,IVS; s,"Sirt3Ko, TAC",1.67 mm
same,LV Mass,"Sirt3Ko, TAC",168.9 mg
same,LV Mass (corr.),"Sirt3Ko, TAC",135.1 mg
same,LV Vol; d,"Sirt3Ko, TAC",47.8 µL
same,LV Vol; s,"Sirt3Ko, TAC",19.8 µL
same,LVID; d,"Sirt3Ko, TAC",3.39 mm
same,LVID; s,"Sirt3Ko, TAC",2.35 mm
same,LVPW; d,"Sirt3Ko, TAC",1.22 mm
same,LVPW; s,"Sirt3Ko, TAC",1.51 mm
same,IVS; d,"Sirt3Ko, TAC",1.22 mm
same,Fractional shortening (FS %),"WT TAC mice, 8-week treatment",preserved FS %
same,EF,"Wildtype, Sham",78.9%
same,FS,"Wildtype, Sham",46.3%
same,IVS; s,"Wildtype, Sham",1.72 mm
same,LV Mass,"Wildtype, Sham",141.9 mg
same,LV Mass (corr.),"Wildtype, Sham",113.5 mg
same,LV Vol; d,"Wildtype, Sham",37.3 µL
same,LV Vol; s,"Wildtype, Sham",7.9 µL
same,LVID; d,"Wildtype, Sham",3.07 mm
same,LVID; s,"Wildtype, Sham",1.65 mm
same,LVPW; d,"Wildtype, Sham",1.27 mm
same,LVPW; s,"Wildtype, Sham",1.64 mm
same,IVS; d,"Wildtype, Sham",1.12 mm
same,EF,"Wildtype, TAC",62.5%
same,FS,"Wildtype, TAC",32.7%
same,IVS; s,"Wildtype, TAC",1.78 mm
same,LV Mass,"Wildtype, TAC",183.9 mg
same,LV Mass (corr.),"Wildtype, TAC",147.1 mg
same,LV Vol; d,"Wildtype, TAC",36.7 µL
same,LV Vol; s,"Wildtype, TAC",13.7 µL
same,LVID; d,"Wildtype, TAC",3.04 mm
same,LVID; s,"Wildtype, TAC",2.04 mm
same,LVPW; d,"Wildtype, TAC",1.52 mm
same,LVPW; s,"Wildtype, TAC",1.85 mm
same,IVS; d,"Wildtype, TAC",1.30 mm
